Here are results for 13 compounds from patent US9822110B2, “Sulfonamide derivative and pharmaceutical use thereof” (EA Pharma Co., Ltd., priority 2013, dated 2017).

The target in this test is T1, MAdCAM-1/α4β7 integrin (Homo sapiens, UniProt P13612+P26010).
T1 construct: a human B-cell line known to express α4β7 integrin; endogenous in cells; host or cells: RPMI-8866 (human B-cell line)
T1 sequence (P13612 34-1032): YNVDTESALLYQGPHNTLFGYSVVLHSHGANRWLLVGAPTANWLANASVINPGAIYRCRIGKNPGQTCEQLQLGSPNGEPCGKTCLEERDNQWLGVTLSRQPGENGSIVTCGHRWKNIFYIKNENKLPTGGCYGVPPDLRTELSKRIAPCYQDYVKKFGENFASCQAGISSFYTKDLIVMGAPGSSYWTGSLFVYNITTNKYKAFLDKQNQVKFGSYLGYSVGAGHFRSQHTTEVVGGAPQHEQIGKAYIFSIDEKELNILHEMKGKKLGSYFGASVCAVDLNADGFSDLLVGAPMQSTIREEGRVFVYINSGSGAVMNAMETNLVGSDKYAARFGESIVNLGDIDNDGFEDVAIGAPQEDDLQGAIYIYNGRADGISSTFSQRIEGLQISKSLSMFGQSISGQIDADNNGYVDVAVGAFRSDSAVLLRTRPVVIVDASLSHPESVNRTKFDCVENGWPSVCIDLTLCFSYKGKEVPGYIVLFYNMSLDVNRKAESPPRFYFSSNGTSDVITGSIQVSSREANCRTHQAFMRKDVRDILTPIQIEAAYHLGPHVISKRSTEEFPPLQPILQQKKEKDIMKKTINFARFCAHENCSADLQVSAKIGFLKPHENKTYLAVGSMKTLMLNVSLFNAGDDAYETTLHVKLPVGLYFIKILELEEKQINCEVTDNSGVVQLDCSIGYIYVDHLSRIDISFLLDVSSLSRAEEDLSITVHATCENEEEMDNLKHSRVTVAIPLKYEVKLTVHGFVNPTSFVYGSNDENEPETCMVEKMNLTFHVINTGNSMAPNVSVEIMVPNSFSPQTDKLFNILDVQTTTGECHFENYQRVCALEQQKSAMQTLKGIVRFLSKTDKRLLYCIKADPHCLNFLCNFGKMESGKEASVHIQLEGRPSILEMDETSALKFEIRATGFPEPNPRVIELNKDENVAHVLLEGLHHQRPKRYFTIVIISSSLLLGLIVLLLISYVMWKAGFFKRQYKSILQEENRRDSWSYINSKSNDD
T1 sequence (P26010 20-798): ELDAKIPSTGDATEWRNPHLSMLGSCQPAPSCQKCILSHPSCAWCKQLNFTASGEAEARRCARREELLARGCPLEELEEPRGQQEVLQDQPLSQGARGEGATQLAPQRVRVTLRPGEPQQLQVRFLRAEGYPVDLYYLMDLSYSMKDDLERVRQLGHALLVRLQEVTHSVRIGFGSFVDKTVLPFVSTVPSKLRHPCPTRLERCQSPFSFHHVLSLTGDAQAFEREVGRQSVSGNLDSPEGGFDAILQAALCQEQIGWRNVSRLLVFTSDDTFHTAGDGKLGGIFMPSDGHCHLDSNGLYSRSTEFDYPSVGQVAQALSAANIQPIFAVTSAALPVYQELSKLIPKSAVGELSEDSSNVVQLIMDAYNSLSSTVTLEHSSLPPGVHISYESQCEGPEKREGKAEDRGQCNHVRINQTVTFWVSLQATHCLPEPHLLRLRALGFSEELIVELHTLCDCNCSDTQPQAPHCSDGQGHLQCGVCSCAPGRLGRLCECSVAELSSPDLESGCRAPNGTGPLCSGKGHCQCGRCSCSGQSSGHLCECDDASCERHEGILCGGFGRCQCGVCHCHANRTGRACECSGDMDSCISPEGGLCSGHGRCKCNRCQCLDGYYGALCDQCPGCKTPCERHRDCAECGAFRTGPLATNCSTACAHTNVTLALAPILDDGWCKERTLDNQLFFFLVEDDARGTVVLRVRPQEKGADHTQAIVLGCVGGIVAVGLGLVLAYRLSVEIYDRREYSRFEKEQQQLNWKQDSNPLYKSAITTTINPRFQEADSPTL
Nature of the test: Evaluation test (1) for MAdCAM-1/α4β7 integrin binding inhibitory activity in the presence of serum (RPMI-8866 cell binding to MAdCAM-1/Fc). The class given is cell-based. The settings on record: RPMI-8866 cells, recombinant mouse MAdCAM-1/Fc, human serum at final concentration of 50%; read-out: α4β7 Serum Activity rank when α4β7 serum was added. The method, then:
The selectivity was determined by dividing the IC50 value in the evaluation test for VCAM-1/α4β1 integrin binding inhibitory activity by the IC50 value in the evaluation test for MAdCAM-1/α4β7 integrin binding inhibitory activity. • (3) Evaluation Test (1) for MAdCAM-1/α4β7 Integrin Binding Inhibitory Activity in the Presence of Serum
The ability of test substances to inhibit the binding of RPMI-8866 cell line, a human B-cell line known to express α4β7 integrin, to MAdCAM-1 was examined.
A 96-well microtiter plate was coated overnight at 4° C. with a recombinant mouse MAdCAM-1/Fc (R&D systems) solution diluted with the buffer A (carbonate buffer, pH 9.6). After washing once with PBS, 150 μL/well of Block Ace (manufactured by Snow Brand Milk Products Co., Ltd.) was added, and it was incubated at room temperature for 2 hours. After removal, it was washed once with PBS.
100 μL of each of test substances and RPMI-8866 cells diluted with a binding buffer solution (DMEM containing 40 mM HEPES, 0.2% BSA, and 4 mM MnCl2) to various concentrations was added to the plate coated with MAdCAM-1/Fc, so that human serum was contained at a final concentration of 50%, and it was incubated at 30° C. for 15 minutes to 60 minutes. After the cells were bound to the wells, unbound cells were removed by washing with PBS. 50 μL/well of the buffer solution C (PBS containing 1.5% Triton X-100) was added to the plate to dissolve the bound RPMI-8866 cells. 30 μL of substrate buffer (Promega, CytoTox 96 Non-Radioactive Cytotoxicity Assay) was added to 30 μL of a cell lysate to allow a reaction for 30 minutes at room temperature in a dark place. 30 μL of stop solution (Promega, CytoTox 96 Non-Radioactive Cytotoxicity Assay) was added thereto to determine the absorbance at 490 nm using a plate reader. The absorbance was obtained herein by detecting the activity of lactate dehydrogenase (LDH) eluted in a supernatant of each well, that is, the absorbance is proportional to the number of RPMI-8866 cells remaining on the plate by being bound to MAdCAM-1. The test was duplicated, and the cell binding rate at various concentrations with the absorbance of the well containing no test substance being taken as 100% was determined, to calculate the concentration IC50 at which 50% of binding was inhibited.

Each structure is given as a SMILES string.

With `CCc1ncc(-c2ccc(S(=O)(=O)Nc3c(F)c(F)c(C(=O)N[C@@H](Cc4ccc(-c5c(C)n(C)c(=O)n(C)c5=O)cc4)C(=O)O)c(F)c3F)cc2)cn1` [Example 45, (2S)-2-[[4-[[4-(2-Ethylpyrimidin-5-yl)phenyl]sulfonylamino]-2,3,5,6-tetrafluoro-benzoyl]amino]-3-[4-(1,3,4-trimethyl-2,6-dioxo-pyrimidin-5-yl)phenyl]propanoic acid], the IC50 lay within 10 to 50 nM.
As for `COCc1ncc(-c2ccc(S(=O)(=O)Nc3cc(F)c(C(=O)N[C@@H](Cc4ccc(-n5c(=O)c6ccncc6n(C)c5=O)nc4)C(=O)O)cc3F)cc2)cn1` [Example 51, (2S)-2-[[2,5-Difluoro-4-[[4-[2-(methoxymethyl)pyrimidin-5-yl]phenyl]sulfonylamino]benzoyl]amino]-3-[6-(1-methyl-2,4-dioxo-pyrido[3,4-d]pyrimidin-3-yl)-3-pyridyl]propanoic acid], the IC50 fell in the range of 10 to 50 nM.
For the compound `Cc1c(-c2ccc(C[C@H](NC(=O)c3cc(F)c(NS(=O)(=O)c4ccc(-c5cnc(C(C)C)nc5)cc4)cc3F)C(=O)O)cc2)c(=O)n(C)c(=O)n1C` [Example 88], the IC50 lay in the range of 50 to 200 nM.
On to `CC(C)OCc1ncc(-c2ccc(S(=O)(=O)Nc3cc(F)c(C(=O)N[C@@H](Cc4ccc(-n5c(=O)c6cncnc6n(C)c5=O)cn4)C(=O)O)cc3F)cc2)cn1` [Example 43, (2S)-2-[[2,5-Difluoro-4-[[4-[2-(isopropoxymethyl)pyrimidin-5-yl]phenyl]sulfonylamino]benzoyl]amino]-3-[5-(1-methyl-2,4-dioxo-pyrimido[4,5-d]pyrimidin-3-yl)-2-pyridyl]propanoic acid], for which the IC50 was greater than 200 nM.
For `Cc1c(-c2ccc(C[C@H](NC(=O)c3cc(F)c(NS(=O)(=O)c4ccc(-c5cnc(N6CCC6)nc5)cc4)cc3F)C(=O)O)cc2)c(=O)n(C)c(=O)n1C` [Example 36, (2S)-2-[[4-[[4-[2-(Azetidin-1-yl)pyrimidin-5-yl]phenyl]sulfonylamino]-2,5-difluoro-benzoyl]amino]-3-[4-(1,3,4-trimethyl-2,6-dioxo-pyrimidin-5-yl)phenyl]propanoic acid], the IC50 lay within 50 to 200 nM.
Consider `Cc1c(-c2ccc(C[C@H](NC(=O)c3cc(F)c(NS(=O)(=O)c4ccc(-c5cnc(COC(C)C)nc5)cc4)cc3F)C(=O)O)cc2)c(=O)n(C)c(=O)n1C` [Example 40, (2S)-2-[[2,5-Difluoro-4-[[4-[2-(isopropoxymethyl)pyrimidin-5-yl]phenyl]sulfonylamino]benzoyl]amino]-3-[4-(1,3,4-trimethyl-2,6-dioxo-pyrimidin-5-yl)phenyl]propanoic acid], for which the IC50 was in the range of 50 to 200 nM.
Consider `Cn1c(=O)n(-c2ccc(C[C@H](NC(=O)c3cc(F)c(NS(=O)(=O)c4ccc(-c5cnc(C6CCNCC6)nc5)cc4)cc3F)C(=O)O)nc2)c(=O)c2ccncc21` [Example 26, (2S)-2-[[2,5-Difluoro-4-[[4-[2-(4-piperidyl)pyrimidin-5-yl]phenyl]sulfonylamino]benzoyl]amino]-3-[5-(1-methyl-2,4-dioxo-pyrido[3,4-d]pyrimidin-3-yl)-2-pyridyl]propanoic acid], for which the IC50 was in the range of 10 to 50 nM.
For the compound `Cc1c(-c2ccc(C[C@H](NC(=O)c3c(F)cc(NS(=O)(=O)c4ccc(C(=O)NC5CC5)cc4)cc3F)C(=O)O)cc2)c(=O)n(C)c(=O)n1C` [Example 47], the IC50 fell in the range of 10 to 50 nM.
`CC(C)OCc1ncc(-c2ccc(S(=O)(=O)Nc3cc(F)c(C(=O)N[C@@H](Cc4ccc(-n5c(=O)ccn(C)c5=O)cc4)C(=O)O)cc3F)cc2)cn1` [Example 42, (2S)-2-[[2,5-Difluoro-4-[[4-[2-(isopropoxymethyl)pyrimidin-5-yl]phenyl]sulfonylamino]benzoyl]amino]-3-[4-(3-methyl-2,6-dioxo-pyrimidin-1-yl)phenyl]propanoic acid]: the IC50 lay in the range of 50 to 200 nM.
In the case of `Cn1c(=O)n(-c2ccc(C[C@H](NC(=O)c3cc(F)c(NS(=O)(=O)c4ccc(-c5cnc(C6CCOCC6)nc5)cc4)cc3F)C(=O)O)nc2)c(=O)c2ccncc21` [Example 27, (2S)-2-[[2,5-Difluoro-4-[[4-(2-tetrahydropyran-4-ylpyrimidin-5-yl)phenyl]sulfonylamino]benzoyl]amino]-3-[5-(1-methyl-2,4-dioxo-pyrido[3,4-d]pyrimidin-3-yl)-2-pyridyl]propionic acid], the IC50 lay in the range of 50 to 200 nM.
Under `CC(C)OCc1ncc(-c2ccc(S(=O)(=O)Nc3cc(F)c(C(=O)N[C@@H](Cc4ccc(-n5c(=O)cc(C(F)(F)F)n(C)c5=O)cc4)C(=O)O)cc3F)cc2)cn1` [Example 44, (2S)-2-[[2,5-Difluoro-4-[[4-[2-(isopropoxymethyl)pyrimidin-5-yl]phenyl]sulfonylamino]benzoyl]amino]-3-[4-[3-methyl-2,6-dioxo-4-(trifluoromethyl)pyrimidin-1-yl]phenyl]propanoic acid] stands 50 to 200 nM; under `Cc1c(-c2ccc(C[C@H](NC(=O)c3cc(F)c(NS(=O)(=O)c4ccco4)cc3F)C(=O)O)cc2)c(=O)n(C)c(=O)n1C` [Example 38, (2S)-2-[[2,5-Difluoro-4-(2-furylsulfonylamino)benzoyl]amino]-3-[4-(1,3,4-trimethyl-2,6-dioxo-pyrimidin-5-yl)phenyl]propanoic acid], 10 to 50 nM.
Regarding `Cc1cc(-c2ccccn2)ccc1S(=O)(=O)Nc1ccc(C(=O)N[C@@H](Cc2ccc(-c3c(C)n(C)c(=O)n(C)c3=O)cc2)C(=O)O)c(F)c1` [Example 46, (2S)-2-[[2-Fluoro-4-[[2-methyl-4-(2-pyridyl)phenyl]sulfonylamino]benzoyl]amino]-3-[4-(1,3,4-trimethyl-2,6-dioxo-pyrimidin-5-yl)phenyl]propanoic acid], the IC50 is greater than 200 nM.
